Assay results published in paper PMC12406195, “Understanding the Modes of Action of β‑Ketoiminato Iridium(III) Complexes in Cancer Cells” (Inorganic Chemistry, 2025).

What was measured:
Format in all cases: cell-based, human
MCF-7 cells = experiment: Chemosensitivity (MTT cell viability) assay, MCF-7
Protocol: (§1) All cytotoxicity assays were conducted using human cell lines: breast adenocarcinomas (MDA-MB-231 and MCF-7), pancreatic carcinoma (MIA PaCa-2) and non-cancerous epithelial retinal (ARPE-19) cell lines. All cell lines were routinely maintained as monolayer cultures in appropriate complete media:
(§2) MCF-7, MIA PaCa-2 and ARPE-19 in high glucose DMEM and MDA-MB-231 in RPMI-1640, and both media were supplemented with 10% FBS, 1 mM sodium pyruvate, 2 mM L-glutamine, and 1% pen-strep. All cells were initially grown in T-25 or T-75 flasks at 37 °C and 5% CO2. Before chemosensitivity studies, cell monolayers were passaged using trypsin-EDTA (0.05%) and diluted to a concentration of 1 x 10^4 cells/mL (or 4 x 10^4 cells mL for 24 h assays). All assays were conducted in 96-well plates, in which 100 µL of the cell suspension was added for 24 h at 37 °C and 5% CO2, and then 100 µL of compound/medium dilutions for a further 96 h (or 24 h). All compound stocks were made using sterile DMSO at 100 mM before dilution, and a maximum of 0.1% DMSO was used in each assay. After incubation, 3-(4,5-dimethylthiazol-2-yl)-2,5-diphenyltetrazolium bromide (20 µL, 5 mg/mL in PBS) was added to each well and incubated for 3 h at 37°C and 5% CO2. All solutions were then aspirated, DMSO (150 µL) added to each well, gently mixed, and the absorbance was measured at 540 nm using a ClarioStar spectrophotometer microplate reader. Results were plotted on a logarithmic scale, and the half maximal inhibitory concentration (IC50) was determined from a triplicate of triplicate repeats (n = 9) and reported as an IC 50 ± Standard Deviation (SD).

ARPE-19 cells = experiment: Chemosensitivity (MTT cell viability) assay, noncancerous ARPE-19; details: ARPE-19 noncancerous, 96 h, n = 9
Protocol: The cytotoxicity of the compounds against the cancer cell lines was also compared to the noncancerous retinal epithelial cell line, ARPE-19, to determine the possibility of cancer cell selectivity. […]
as §1, §2

MDA-MB-231 cells = experiment: Acridine orange/ethidium bromide (AO/EB) staining; details: MDA-MB-231, 48 h
Protocol: To investigate how the drugs impacted cell viability, acridine orange (AO)/ethidium bromide (EtBr) staining was employed to identify the MDA-MB-231 cells' mode of death in response to compound 1 or CDDP, with AO marking early apoptotic cells in green and EtBr marking late apoptotic or necrotic cells in red. […] This effect was more pronounced than with CDDP, indicating its higher efficacy.
MDA-MB-231 cells at 4000 cells/well were seeded into a black clear -bottom 96-well plate using phenol-red free complete RMPI medium, and incubated for 48 h. The cells were treated with 100 µM of 1 for 4 h alongside an untreated sample (control). […] Fluorescence images were obtained using a Zeiss Observer 7 inverted microscope at excitation at 488 nm and emission at 509 […]
Plasmid DNA (200 ng, pBOS -H2B-GFP, BD Biosciences) was incubated overnight at room temperature with 1 or CDDP at concentrations between 100 and 400 μM in double -distilled H2O (20 μL total volume). […] The experiment was conducted in two biological replicates, and the band intensities were quantified and analyzed using ImageJ software. […]
MDA-MB-231 cells were seeded in 6-well plates at a density of 1.2 × 10⁵ cells/well. […] The samples were then placed on microscope slides, covered with a coverslip, and their morphology was examined using a fluorescence microscope (Eclipse TS100, Nikon). […]

Substance: [Cp*Ir(C16H14NO)(PTA)](PF6) [Compound 1]
- IC50 (MCF-7 cells; MCF-7, 96 h, n = 9): 48 ± 3 µM
- Selectivity index (SI) (MCF-7 cells; MCF-7 compared to ARPE-19, 96 h): 0.2
- IC50 (ARPE-19 cells): 10.4 ± 0.7 µM
- AO/EtBr staining (mode of cell death) (MDA-MB-231 cells): increased staining for both dyes
